Measurements taken from patent US5985900A, “Metalloproteinase inhibitors, pharmaceutical compositions containing them and their pharmaceutical uses” (Agouron Pharmaceuticals, Inc., priority 1998, dated 1999).
Read-outs that look alike come from different tables or passages of the source.

What was measured:
Format in all cases: biochemical
[1] = biological target: T1, human collagenase-3 (Coll3) (Homo sapiens, UniProt P45452); assay: In vitro MMP inhibition assay (hydrolysis of fluorogenic MCA peptide substrate), collagenase-3; conditions: Table 1; Ki,app; MCA peptide substrate 10 μM, 37° C., pH 7.5, 2% DMSO
T1 construct: catalytic domain liberated with APMA
Procedure: The propeptide and catalytic domain of human collagenase-3 (Coll3) was expressed in E. coli as an N-terminal fusion protein with ubiquitin. After purification of the fusion from inclusion bodies, the catalytic domain was liberated by treatment with 2 mM APMA at room temperature overnight. Final purification was completed using copper chelate chromatography.
(§1) Assays were performed in assay buffer (50 mM Tricine pH 7.5, 200 mM sodium chloride, 10 mM calcium chloride, 0.5 mM zinc acetate containing 2% dimethyl sulfoxide (DMSO)) once the substrate and inhibitor were diluted into it. Stock solutions of inhibitors were prepared in 100% DMSO. Stock solutions of the substrate were prepared in 100% DMSO at a concentration of 6 mM.
(§2) The assay method was based on the hydrolysis of MCA-Pro-Leu-Gly-Leu-DPA-Ala-Arg-NH2 (American Peptide Co.) at 37° C. (see Knight, C. G. et al., FEBS, 1992, 296, 263-266). The fluorescence changes were monitored with a Perkin-Elmer LS-50B fluorimeter using an excitation wavelength of 328 nm and an emission wavelength of 393 nm. The substrate concentration used in the assays was 10 μM. The inhibitor was diluted into the assays from a solution in 100% DMSO, and controls substituted an equal volume of DMSO so that the final DMSO concentration from inhibitor and substrate dilution in all assays was 2%. […] Proper determination of steady-state rates of substrate cleavage required assay lengths of 60 minutes to allow for complete equilibration of the enzyme-inhibitor complex.
(§3) The Km for the MCA peptide substrate with the matrix metalloproteinases is quite high and exceeds its solubility under assay conditions. Consequently, the apparent Ki (Ki,app) was determined to describe the strength of inhibition. However, in this case, Ki,app would be essentially equal to Ki since [S]<<Km. For the determination of Ki,app, the concentration of the inhibitor was varied at a constant and low concentration of substrate and the steady-state rates of fluorescence change determined. In most cases absorptive quench due to the presence of ligand was not observed. For slow-binding inhibitors, onset of inhibition curves were collected for at least 45 minutes so that equilibrium was established. Steady-state rates of fluorescence change were obtained by fitting a curve to an equation for a single exponential decay containing a linear phase. The fitted value of the linear phase was taken as the steady-state rate. The steady-state rates were fitted to the Michaelis equation describing competitive inhibition by non-linear methods. Data resulting from tight-binding inhibition was analyzed, and Ki,app determined by fitting the data to the tight-binding equation of Morrison (Biochem. Biophys. Acta, vol. 185, pp. 269-286 (1969)) by non-linear methods.
(§4) All Ki values are in nM units.

[2] = biological target: human progelatinase A (GelA) (Homo sapiens, UniProt P08253); assay: In vitro MMP inhibition assay (hydrolysis of fluorogenic MCA peptide substrate), gelatinase A
human progelatinase A (GelA), sequence (P08253 110-446 limits assumed): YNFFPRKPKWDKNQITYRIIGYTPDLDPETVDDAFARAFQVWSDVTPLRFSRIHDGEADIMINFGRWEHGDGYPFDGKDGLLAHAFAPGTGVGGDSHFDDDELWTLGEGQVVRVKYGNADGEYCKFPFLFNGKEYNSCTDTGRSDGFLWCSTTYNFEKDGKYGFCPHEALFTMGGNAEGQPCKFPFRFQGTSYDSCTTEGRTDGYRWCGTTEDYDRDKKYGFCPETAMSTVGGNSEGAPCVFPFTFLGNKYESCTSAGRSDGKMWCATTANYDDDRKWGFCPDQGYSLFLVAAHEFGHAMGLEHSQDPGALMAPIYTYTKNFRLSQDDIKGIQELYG
Procedure: The catalytic and fibronectin-like portion of human progelatinase A (GelA) was expressed as a fusion protein with ubiquitin in E. Coli. Assays were carried out on autocatalytically activated material.
as §1, §2, §3, §4

[3] = biological target: human stromelysin (Sln) (Homo sapiens, UniProt P08254); assay: In vitro MMP inhibition assay (hydrolysis of fluorogenic MCA peptide substrate), stromelysin
human stromelysin (Sln), sequence (P08254 100-272 limits assumed): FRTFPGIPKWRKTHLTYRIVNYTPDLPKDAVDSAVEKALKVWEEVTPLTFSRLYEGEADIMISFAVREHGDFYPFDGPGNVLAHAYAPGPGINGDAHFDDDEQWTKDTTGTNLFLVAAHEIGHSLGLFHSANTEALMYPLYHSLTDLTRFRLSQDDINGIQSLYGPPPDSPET
Procedure: The catalytic domain of human stromelysin (Sln) was obtained by expression and purification of a C-terminally truncated prostromelysin-1 from E. coli host BL21 (see Marcy et al. Biochem., 1991, 30, 6476). The subsequent activation of the mature form (Sln) was completed with 2 mM APMA for 1 hour at 37° C., followed by separation using a sizing column.
as §1, §2, §3, §4

[4] = Table 1, Ki,app, MCA peptide substrate 10 μM, 37° C., pH 7.5, 2% DMSO, read-out: Gel A
[5] = Table 1, Ki,app, MCA peptide substrate 10 μM, 37° C., pH 7.5, 2% DMSO, read-out: Sin Ki

Structure (SMILES) | Ki [1] [nM] | Ki [2, 4] [nM] | Ki [3, 5] [nM] | Ki ([2]; Table 2, comparative example, gelatinase A, read-out: GELATINASE Kj) [nM] | Ki ([3]; Table 2, comparative example, read-out: STROMELYSIN Ki) [nM]
CC(C)(SCC(=O)O)[C@@H](NS(=O)(=O)c1ccc(Oc2ccc(F)cc2)cc1)C(=O)NO [Example 12, 2(S)--N-hydroxy-3-methyl-3-(carboxymethyl)sulfanyl-2-[(4-(4-fluorophenoxy)benzenesulfonyl)amino]butanamide] | 0.27 | 0.53 | 5.7 | – | –
Cc1cc(CSC(C)(C)[C@@H](NS(=O)(=O)c2ccc(Oc3ccncc3)cc2)C(=O)O)no1 [Example 4b, S--[(5-Methylisoxazol-3-yl)methyl]--N--[4(pyrid-4-yl)oxybenzenesulfonyl]-D-penicillamine] | – | 27 | 751 | – | –
CC(C)(C)[C@@H](NS(=O)(=O)c1ccc(Oc2ccc(F)cc2)cc1)C(=O)O [Example 3q, N-[4-(4-Fluorophenoxy)benzenesulfonyl]-D-tert-leucine] | 1180 | 150 | 14000 | – | –
CC(C)(SCc1ccccn1)[C@@H](NS(=O)(=O)c1ccc(Oc2ccc(I)cc2)cc1)C(=O)NO [Example 9f, 2(S)--N-hydroxy-3-methyl-3-(pyrid-2-yl)methylsulfanyl-2-[(4-(4-iodophenoxy)benzenesulfonyl)amino]butanamide] | 0.015 | – | 0.29 | – | –
CC(C)(SCc1nccn1Cc1ccccc1)[C@@H](NS(=O)(=O)c1ccc(Oc2ccc(Br)cc2)cc1)C(=O)O [Example 3b, N-[4-(4-Bromophenoxy)benzenesulfonyl]--S--[(1-benzyl-1H-imidazol-2-yl)methyl]-D-penicillamine] | 108 | 1.8 | 558 | – | –
Cc1cc(CSC(C)(C)[C@@H](NS(=O)(=O)c2ccc(Sc3ccncc3)cc2)C(=O)NO)no1 [Example 10b, 2(S)--N-hydroxy-3-methyl-3-(5-methylisoxazol-3-yl)methylsulfanyl-2-[(4-{(pyrid-4-yl)sulfanyl}benzenesulfonyl)amino]butanamide] | 1.6 | 0.75 | 38 | – | –
CC(C)(C)[C@@H](NS(=O)(=O)c1ccc(Oc2ccccn2)cc1)C(=O)O [Example 4d] | 27000 | 11000 | 274000 | – | –
CC(C)(SCc1ccccn1)[C@@H](NS(=O)(=O)c1ccc(Oc2ccc(I)cc2)cc1)C(=O)O [Example 3i, N-[4-(4-Iodophenoxy)benzenesulfonyl]--S--[(pyrid-2-yl)methyl]-D-penicillamine] | 196 | 3.3 | 1180 | – | –
Cn1ccnc1CSC(C)(C)[C@@H](NS(=O)(=O)c1ccc(Oc2ccc(Br)cc2)cc1)C(=O)NO [Example 9n, 2(S)--N-hydroxy-3-methyl-3-(1-methyl-1H-imidazol-2-yl)-methylsulfanyl-2-[(4-(4-bromophenoxy)benzenesulfonyl)amino]butanamide] | – | 0.11 | 0.2 | – | –
Cc1ccc(Oc2ccc(S(=O)(=O)N[C@@H](C(=O)NO)C(C)(C)SCc3ccccn3)cc2)cc1 [Example 9g, 2(S)--N-hydroxy-3-methyl-3-(pyrid-2-yl)methylsulfanyl-2-[(4-(4-methylphenoxy)benzenesulfonyl)amino]butanamide] | – | 0.036 | 0.73 | – | –
CC(C)(SCc1ccccn1)[C@@H](NS(=O)(=O)c1ccc(Oc2ccc(C(F)(F)F)cc2)cc1)C(=O)O [Example 3j, N-[4-(4-(trifluoromethyl)phenoxy)benzenesulfonyl]--S--[(pyrid-2-yl)methyl]-D-penicillamine] | – | 48 | 2950 | – | –
CC(C)(SCc1nccn1Cc1ccccc1)[C@@H](NS(=O)(=O)c1ccc(Oc2ccc(F)cc2)cc1)C(=O)O [Example 3a, S--[(1-Benzyl-1H-imidazol-2-yl)methyl]--N--[4-(4-fluorophenoxy)benzenesulfonyl]-D-penicillamine] | 200 | 11 | 1300 | – | –
CC(C)(O)[C@@H](NS(=O)(=O)c1ccc(Oc2ccc(Br)cc2)cc1)C(=O)O [Example 3s, N-[4-(4-Bromophenoxy)benzenesulfonyl]-D--(β-hydroxy)valine] | – | 900 | 348000 | – | –
CSC(C)(C)[C@@H](NS(=O)(=O)c1ccc(Oc2ccccc2)cc1)C(=O)NO [Example 9a, 2(S)--N--Hydroxy-3-methyl-3-methylsulfanyl-2-[(4-phenoxybenzenesulfonyl)amino]butanamide] | 0.067 | 0.069 | 2.2 | – | –
Cc1cc(CSC(C)(C)[C@@H](NS(=O)(=O)c2ccc(Oc3ccc(F)cc3)cc2)C(=O)NO)no1 [Example 9c, 2(S)--N-hydroxy-3-methyl-3-(5-methylisoxazol-3-yl)methylsulfanyl-2-[(4-(4-fluorophenoxy)benzenesulfonyl)amino]butanamide] | – | 0.024 | 0.63 | – | –
Cc1cc(CSC(C)(C)[C@@H](NS(=O)(=O)c2ccc(Oc3ccc(Br)cc3)cc2)C(=O)O)no1 [Example 3k, N-[4-(4-Bromophenoxy)benzenesulfonyl]--S--[(5-methylisoxazol-3-yl)-methyl]-D-penicillamine] | 209 | 4.2 | 2600 | – | –
CC(C)(SCc1ccccn1)[C@@H](NS(=O)(=O)c1ccc(Oc2ccc(C#N)cc2)cc1)C(=O)O [Example 3h, N-[4-(4-Cyanophenoxy)benzenesulfonyl]--S--[(pyrid-2-yl)methyl]-D-penicillamine] | 258 | 73 | 8200 | – | –
COC(=O)CCSC(C)(C)[C@@H](NS(=O)(=O)c1ccc(Oc2ccc(F)cc2)cc1)C(=O)O [Example 7, S--[2-(Methoxycarbonyl)ethyl]--N--[4-(4-fluorophenoxy)benzenesulfonyl]-D-penicillamine] | – | 165 | 10500 | – | –
CC(C)(SCCO)[C@@H](NS(=O)(=O)c1ccc(Oc2ccc(F)cc2)cc1)C(=O)O [Example 8a, S--[2-Hydroxyethyl]--N--[4-(4-fluorophenoxy)benzenesulfonyl]-D-penicillamine] | – | 373 | 12500 | – | –
Cc1cc(CSC(C)(C)[C@@H](NS(=O)(=O)c2ccc(Oc3ccncc3)cc2)C(=O)NO)no1 [Example 10a, 2(S)--N-hydroxy-3-methyl-3-(5-methylisoxazol-3-yl)methylsulfanyl-2-[(4-(pyrid-4-yloxy)benzenesulfonyl)amino]butanamide] | – | 0.32 | 11.4 | – | –
Cc1cc(CSC(C)(C)[C@@H](NS(=O)(=O)c2ccc(Oc3ccc(Br)cc3)cc2)C(=O)NO)no1 [Example 9d, 2(S)--N-hydroxy-3-methyl-3-(5-methylisoxazol-3-yl)methylsulfanyl-2-[(4-(4-bromophenoxy)benzenesulfonyl)amino]butanamide] | 0.013 | – | 0.24 | – | –
CC(C)(SCCC(N)=O)[C@@H](NS(=O)(=O)c1ccc(Oc2ccc(F)cc2)cc1)C(=O)O [Example 8b, S--[2-(Aminocarbonyl)ethyl]--N--[4-(4-fluorophenoxy)benzenesulfonyl]-D-penicillamine] | – | 334 | 5700 | – | –
Cc1ccc(S(=O)(=O)NCC(=O)NO)cc1 [Compound 13, N-hydroxy-2-(toluene-4-sulfonylamino)acetamide, reference compound] | – | – | – | 3500 | 3400
Cn1ccnc1CSC(C)(C)[C@@H](NS(=O)(=O)c1ccc(Oc2ccc(Br)cc2)cc1)C(=O)O [Example 3o] | – | 34 | 2150 | – | –
